{"source": "ChEMBL document CHEMBL5032530", "about": "“Discovery of Benzocyclic Sulfone Derivatives as Potent CXCR2 Antagonists for Cancer Immunotherapy” (J Med Chem, 2021)", "key": {"[1]": {"biological_target": "C-C chemokine receptor type 10 (Homo sapiens) (UniProt P46092)", "sequence (P46092 whole entry)": "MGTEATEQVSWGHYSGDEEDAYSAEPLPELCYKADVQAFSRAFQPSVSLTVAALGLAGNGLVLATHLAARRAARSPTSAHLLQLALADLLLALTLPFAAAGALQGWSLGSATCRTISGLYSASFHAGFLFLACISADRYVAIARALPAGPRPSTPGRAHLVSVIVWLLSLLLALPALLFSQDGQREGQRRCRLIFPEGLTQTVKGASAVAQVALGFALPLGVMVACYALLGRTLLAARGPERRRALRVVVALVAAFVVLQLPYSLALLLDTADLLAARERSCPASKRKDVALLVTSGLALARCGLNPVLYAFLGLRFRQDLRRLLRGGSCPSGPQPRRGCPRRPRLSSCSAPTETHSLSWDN", "assay": "Agonist activity against CCR10 (unknown origin) assessed as induction of beta-arrestin 2 recruitment at 10 microM by beta arrestin assay relative to control", "format": "functional"}, "[2]": {"assay": "Cmax in ICR mouse at 3 mg/kg, iv measured upto 48 hrs", "format": "ADME, organism-based", "set-up": "route intravenous, dose 3 mg/kg, time <=48", "details": "in vivo"}, "[3]": {"biological_target": "C-X-C chemokine receptor type 1 (Homo sapiens) (UniProt P25024)", "sequence (P25024 whole entry)": "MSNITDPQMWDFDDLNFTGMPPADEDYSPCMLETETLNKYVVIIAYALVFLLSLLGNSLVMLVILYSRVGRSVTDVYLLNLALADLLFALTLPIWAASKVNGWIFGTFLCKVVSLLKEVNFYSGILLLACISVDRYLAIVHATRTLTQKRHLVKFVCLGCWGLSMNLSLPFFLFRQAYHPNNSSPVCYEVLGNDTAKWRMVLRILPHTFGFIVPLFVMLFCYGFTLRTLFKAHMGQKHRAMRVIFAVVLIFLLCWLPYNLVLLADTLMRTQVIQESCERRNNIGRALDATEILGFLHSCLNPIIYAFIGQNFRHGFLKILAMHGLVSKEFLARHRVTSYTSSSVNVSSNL", "assay": "Agonist activity against CXCR1 (unknown origin) assessed as induction of beta-arrestin 2 recruitment at 10 microM by beta arrestin assay relative to control", "format": "functional"}, "[4]": {"system": "Panc02", "assay": "Antitumour activity against mouse Panc02 cells xenografted in mouse assessed as change in CD11b expressing immune cells infiltration into tumor tissue using LY6C antibody at 30 mg/kg, po bid measured after 15 days by flow cytometry analysis (reference value: 20.5%)", "format": "functional", "details": "time 15 day"}, "[5]": {"system": "Panc02", "assay": "Antitumour activity against mouse Panc02 cells xenografted in mouse assessed as tumour growth inhibition at 10 mg/kg, po bid […]", "format": "functional", "details": "read-out: TGI"}, "[6]": {"biological_target": "C-C chemokine receptor type 5 (Homo sapiens) (UniProt P51681)", "sequence (P51681 whole entry, looked up)": "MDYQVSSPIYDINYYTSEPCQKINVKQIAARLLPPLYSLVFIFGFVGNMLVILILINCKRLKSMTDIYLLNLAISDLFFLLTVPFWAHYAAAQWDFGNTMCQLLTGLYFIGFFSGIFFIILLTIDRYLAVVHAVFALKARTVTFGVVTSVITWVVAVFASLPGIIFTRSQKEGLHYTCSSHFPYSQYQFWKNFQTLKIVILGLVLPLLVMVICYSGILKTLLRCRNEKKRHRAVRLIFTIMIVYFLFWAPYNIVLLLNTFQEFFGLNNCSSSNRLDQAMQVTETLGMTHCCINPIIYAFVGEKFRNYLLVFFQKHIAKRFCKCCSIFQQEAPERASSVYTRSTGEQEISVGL", "assay": "Antagonist activity against CCR5 (unknown origin) assessed as inhibition of beta-arrestin 2 recruitment at 10 microM by beta arrestin assay relative to control", "format": "functional", "set-up": "scale not given: the % may be the effect or the level left"}, "[7]": {"biological_target": "C-C chemokine receptor type 2 (Homo sapiens) (UniProt P41597)", "sequence (P41597 whole entry, looked up)": "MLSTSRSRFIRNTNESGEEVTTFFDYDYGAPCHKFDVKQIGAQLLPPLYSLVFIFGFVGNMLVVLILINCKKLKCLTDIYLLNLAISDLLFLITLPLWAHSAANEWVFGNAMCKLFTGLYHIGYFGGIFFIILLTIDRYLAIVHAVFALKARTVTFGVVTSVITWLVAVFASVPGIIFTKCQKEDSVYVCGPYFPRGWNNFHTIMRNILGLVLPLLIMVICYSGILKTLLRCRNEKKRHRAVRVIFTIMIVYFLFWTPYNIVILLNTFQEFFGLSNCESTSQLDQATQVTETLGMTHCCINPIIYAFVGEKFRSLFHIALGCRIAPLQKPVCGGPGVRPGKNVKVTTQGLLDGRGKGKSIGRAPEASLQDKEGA", "assay": "Antagonist activity against CCR2 (unknown origin) assessed as inhibition of beta-arrestin 2 recruitment at 10 microM by beta arrestin assay relative to control", "format": "functional", "set-up": "scale not given: the % may be the effect or the level left"}, "[8]": {"system": "Panc02", "assay": "Antitumour activity against mouse Panc02 cells xenografted in mouse assessed as reduction in infiltration of granulocytic MDSCs into tumor tissue at 3 mg/kg, po bid measured after 15 days by flow cytometry analysis", "format": "functional, organism-based", "details": "time 15.0 day"}, "[9]": {"system": "Panc02", "assay": "Antitumour activity against mouse Panc02 cells xenografted in mouse assessed as change in CD45 expressing immune cells infiltration into tumor tissue at 30 mg/kg, po bid measured after 15 days by flow cytometry analysis (reference value: 2.3%)", "format": "functional", "details": "time 15 day"}, "[10]": {"assay": "Clearance in ICR mouse at 30 mg/kg, po measured upto 48 hrs", "format": "ADME, organism-based", "details": "ICR, in vivo"}, "[11]": {"biological_target": "Chemerin-like receptor 1 (Homo sapiens) (UniProt Q99788)", "sequence (Q99788 whole entry)": "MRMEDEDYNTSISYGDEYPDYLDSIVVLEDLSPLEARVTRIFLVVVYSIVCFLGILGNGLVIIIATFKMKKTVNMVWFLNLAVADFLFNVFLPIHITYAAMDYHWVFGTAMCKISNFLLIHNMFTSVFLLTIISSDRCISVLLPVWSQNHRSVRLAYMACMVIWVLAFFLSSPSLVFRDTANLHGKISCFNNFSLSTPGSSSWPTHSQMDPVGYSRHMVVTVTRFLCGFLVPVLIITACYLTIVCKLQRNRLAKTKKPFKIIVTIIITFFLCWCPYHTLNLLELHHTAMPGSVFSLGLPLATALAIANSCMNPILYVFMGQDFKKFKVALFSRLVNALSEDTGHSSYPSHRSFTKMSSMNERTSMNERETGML", "assay": "Antagonist activity against CMKLR1 (unknown origin) assessed as inhibition of beta-arrestin 2 recruitment at 10 microM by beta arrestin assay relative to control", "format": "functional", "set-up": "scale not given: the % may be the effect or the level left"}, "[12]": {"biological_target": "C-C chemokine receptor type 9 (Homo sapiens) (UniProt P51686)", "sequence (P51686 whole entry)": "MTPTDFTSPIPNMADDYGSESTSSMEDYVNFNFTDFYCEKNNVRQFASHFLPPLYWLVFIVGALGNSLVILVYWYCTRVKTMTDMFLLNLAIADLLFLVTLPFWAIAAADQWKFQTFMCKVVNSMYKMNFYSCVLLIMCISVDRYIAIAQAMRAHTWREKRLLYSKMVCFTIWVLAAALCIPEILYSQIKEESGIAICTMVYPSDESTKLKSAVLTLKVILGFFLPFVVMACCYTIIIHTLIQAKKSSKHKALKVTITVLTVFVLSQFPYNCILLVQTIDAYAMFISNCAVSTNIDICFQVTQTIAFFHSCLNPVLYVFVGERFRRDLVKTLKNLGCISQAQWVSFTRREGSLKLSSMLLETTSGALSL", "assay": "Antagonist activity against CCR9 (unknown origin) assessed as inhibition of beta-arrestin 2 recruitment at 10 microM by beta arrestin assay relative to control", "format": "functional", "set-up": "scale not given: the % may be the effect or the level left"}, "[13]": {"biological_target": "C-C chemokine receptor type 3 (Homo sapiens) (UniProt P51677)", "sequence (P51677 whole entry)": "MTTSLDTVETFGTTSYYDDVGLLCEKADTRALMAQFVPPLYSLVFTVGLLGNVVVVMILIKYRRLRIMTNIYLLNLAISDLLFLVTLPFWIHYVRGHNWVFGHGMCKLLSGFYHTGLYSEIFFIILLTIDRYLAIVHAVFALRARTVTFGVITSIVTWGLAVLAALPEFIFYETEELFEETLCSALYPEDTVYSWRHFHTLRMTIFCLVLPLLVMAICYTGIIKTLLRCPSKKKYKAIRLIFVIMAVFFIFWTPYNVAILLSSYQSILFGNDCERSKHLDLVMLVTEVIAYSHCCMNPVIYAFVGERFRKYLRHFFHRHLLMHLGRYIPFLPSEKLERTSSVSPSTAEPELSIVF", "assay": "Antagonist activity against CCR3 (unknown origin) assessed as inhibition of beta-arrestin 2 recruitment at 10 microM by beta arrestin assay relative to control", "format": "functional", "set-up": "scale not given: the % may be the effect or the level left"}}, "note": "Calls of active or inactive are those of the source. No cut-off for these calls is given here.", "data": [{"smiles": "Cc1c(F)cccc1NC(=O)Nc1ccc2c(c1O)S(=O)(=O)CCC2", "values": [{"measurement": "Activity", "setting": "[1]", "result": "< 10", "unit": "%"}, {"measurement": "Cmax", "setting": "[2]", "result": 873, "unit": "ng/mL"}, {"measurement": "Activity", "setting": "[3]", "result": "< 10", "unit": "%"}, {"measurement": "Activity", "setting": "[4]", "result": 15.3, "unit": "%"}, {"measurement": "inhibition in vivo at 10 mg/kg", "setting": "[5]", "result": 42.5, "unit": "%"}, {"measurement": "Activity", "setting": "[6]", "result": "< 10", "unit": "%"}, {"measurement": "Activity", "setting": "[7]", "result": 17, "unit": "%"}, {"measurement": "Activity", "setting": "[8]", "result": "Active"}, {"measurement": "Activity", "setting": "[9]", "result": 42.3, "unit": "%"}, {"measurement": "CL/F", "setting": "[10]", "result": 2190, "unit": "mL/min/kg"}, {"measurement": "Activity", "setting": "[11]", "result": "< 10", "unit": "%"}, {"measurement": "Activity", "setting": "[12]", "result": 14, "unit": "%"}, {"measurement": "Activity", "setting": "[13]", "result": 13, "unit": "%"}]}]}
